# Measurements: ChEMBL document CHEMBL5380809, “Discovery of Novel N-Hydroxy-1,2,4-oxadiazole-5-formamides as ASM Direct Inhibitors for the Treatment of Atherosclerosis” (J Med Chem, 2023)
# The source made the active and inactive calls. The calls are words filed in the database; no cut-off is given here.
# What was measured:
# [1] = target: T1, Sphingomyelin phosphodiesterase (Homo sapiens) (UniProt P17405); experiment: Inhibition of recombinant human aSMase (62 to 628 residues) using HMU-PC as substrate at 50 uM incubated for 2 hrs by fluorescence based assay
# T1 sequence (whole entry): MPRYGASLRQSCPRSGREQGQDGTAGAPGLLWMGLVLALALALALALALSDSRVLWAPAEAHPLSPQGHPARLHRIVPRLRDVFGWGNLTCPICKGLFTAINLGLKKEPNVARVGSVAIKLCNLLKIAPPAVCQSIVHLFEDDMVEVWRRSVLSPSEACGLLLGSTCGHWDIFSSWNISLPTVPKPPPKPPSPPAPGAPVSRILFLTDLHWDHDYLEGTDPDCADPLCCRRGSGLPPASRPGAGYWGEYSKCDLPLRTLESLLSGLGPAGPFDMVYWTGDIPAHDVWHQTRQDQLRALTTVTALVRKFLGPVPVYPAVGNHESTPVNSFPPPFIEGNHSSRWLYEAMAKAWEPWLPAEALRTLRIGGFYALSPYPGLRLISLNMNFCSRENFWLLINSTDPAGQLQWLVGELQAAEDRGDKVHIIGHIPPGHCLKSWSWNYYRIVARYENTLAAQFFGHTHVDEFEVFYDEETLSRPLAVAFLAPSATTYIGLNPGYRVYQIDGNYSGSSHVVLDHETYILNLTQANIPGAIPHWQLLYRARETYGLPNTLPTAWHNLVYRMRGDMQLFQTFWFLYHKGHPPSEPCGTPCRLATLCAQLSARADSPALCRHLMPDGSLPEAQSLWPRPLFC
# [2] = target: T2, Sphingomyelin phosphodiesterase (Homo sapiens, UniProt P17405); experiment: Inhibition of recombinant human aSMase (62 to 628 residues) using HMU-PC as substrate incubated for 2 hrs by fluorescence based assay
# T2 sequence (P17405 whole entry): T1 sequence (whole entry)
# [3] = target: T1, Sphingomyelin phosphodiesterase (Homo sapiens); experiment: Inhibition of recombinant human aSMase (62 to 628 residues) using HMU-PC as substrate at 25 uM incubated for 2 hrs by fluorescence based assay relative to control
# [4] = Cytotoxicity against HUVEC cells assessed as cell growth inhibition incubated for 24 hrs by MTT assay; assay type: toxicity, cell-based; settings: human
# [5] = Cytotoxicity against HUVEC cells assessed as cell growth inhibition incubated for 48 hrs by MTT assay; assay type: toxicity, cell-based; settings: human
# [6] = target: T1, Sphingomyelin phosphodiesterase (Homo sapiens); experiment: Inhibition of recombinant human aSMase (62 to 628 residues) using HMU-PC as substrate at 50 uM incubated for 2 hrs by fluorescence based assay relative to control
# Mus musculus [7] = experiment: Antiatherosclerotic activity in high-fat diet fed ApoE-/- mouse assessed as reduction in plasma total cholesterol level at 20 mg/kg measured after 8 weeks; assay type: functional, organism-based
# Mus musculus [8] = experiment: Antiatherosclerotic activity in high-fat diet fed ApoE-/- mouse assessed as reduction in aortic arch lipid accumulation at 20 mg/kg measured after 8 weeks; assay type: functional, organism-based
# Mus musculus [9] = experiment: Antiatherosclerotic activity in high-fat diet fed ApoE-/- mouse assessed as reduction in plasma LDL-C level at 20 mg/kg measured after 8 weeks; assay type: functional, organism-based
# Mus musculus [10] = experiment: Antiatherosclerotic activity in high-fat diet fed ApoE-/- mouse assessed as reduction in plasma Ox-LDL-C level at 20 mg/kg measured after 8 weeks; assay type: functional, organism-based
# Mus musculus [11] = experiment: Antiatherosclerotic activity in high-fat diet fed ApoE-/- mouse assessed as reduction in plasma total triacylglycerol level at 20 mg/kg measured after 8 weeks; assay type: functional, organism-based
# [12] = Inhibition of rat brain aSMase using HMU-PC as substrate incubated for 3 hrs by fluorescence based assay; assay type: tissue-based
# HUVEC = experiment: Cytotoxicity against HUVEC cells assessed as cell growth inhibition at 0.5 to 20 uM incubated for 24 to 48 hrs by MTT assay; assay type: toxicity, cell-based; settings: human, dose lower 0.5 µM, time lower 24 hrs, dose upper 20 µM, time upper 48 hrs
smiles,measurement,setting,value
O=C(NO)c1nc(-c2ccc(CNc3ccc(Cl)cc3)cc2)no1,inhibition,[1],inactive
O=C(CCCOc1ccc(-c2ccc(Cl)cc2)cc1)NO,inhibition,[1],inactive
CCCCOc1ccc(-c2cc(C(=O)NO)no2)cc1,IC50,[2],1 µM
O=C(NO)c1nnc(-c2ccc(OCc3ccccc3)cc2)o1,inhibition,[3],3%
O=C(NO)c1nc(-c2ccc(COc3ccccc3Cl)cc2)no1,inhibition,[1],inactive
O=C(NO)c1nc(COc2ccc(-c3ccccc3)cc2)no1,IC50,[2],0.83 µM
O=C(Cc1nc(-c2ccc(COc3ccc(Br)cc3)cc2)no1)NO,inhibition,[1],inactive
O=C(NO)c1nc(-c2ccc(COc3ccc(C(F)(F)F)cc3)cc2)no1,IC50 at 24 h,[4],79.1 µM
same,IC50,[2],8.1 µM
same,IC50 at 48 h,[5],84.3 µM
O=C(Cc1noc(COc2ccc(-c3ccc(Cl)cc3)cc2)n1)NO,IC50,[2],18.7 µM
COc1cc(-c2nnc(C(=O)NO)o2)ccc1OCC(C)C,inhibition,[3],55%
CCCCOc1ccc(-c2nnc(C(=O)NO)o2)cc1,inhibition,[3],13%
same,inhibition,[1],inactive
CC(C)COc1ccc(-c2cc(C(=O)NO)no2)cc1,IC50,[2],6.73 µM
CCCCOc1ccc(-c2nnc(C(=O)NO)o2)cc1OC,inhibition,[3],57%
O=C(NO)c1noc(-c2ccc(Br)cc2)n1,IC50,[2],37.3 µM
COc1cc(-c2nnc(C(=O)NO)o2)ccc1OCc1ccccc1,inhibition,[3],60%
O=C(NO)c1nc(-c2ccc(COc3ccc(Cl)cc3)cc2)no1,IC50,[2],4.2 µM
O=C(NO)c1nc(COc2ccc(-c3ccc(Cl)cc3)cc2)no1,IC50,[2],0.47 µM
O=C(NO)c1cc(-c2ccc(-c3ccc(Cl)cc3)cc2)on1,inhibition,[6],< 50%
same,IC50,[2],> 50 µM
CCC(C)(C)C(=O)O[C@H]1C[C@@H](C)C=C2C=C[C@H](C)[C@H](CC[C@@H]3C[C@@H](O)CC(=O)O3)[C@H]21,Activity,Mus musculus [7],Active
same,Activity,Mus musculus [8],Active
same,Activity,Mus musculus [9],Active
same,Activity,Mus musculus [10],inactive
same,Activity,Mus musculus [11],Active
O=C(NO)c1nc(-c2ccc(COc3ccccc3)cc2)no1,IC50,[2],3.3 µM
O=C(NO)c1cc(-c2ccc(OCc3ccccc3)cc2)on1,IC50,[2],7.9 µM
O=C(Cc1noc(-c2ccc(Br)cc2)n1)NO,inhibition,[6],< 50%
same,IC50,[2],> 50 µM
O=C(NO)c1noc(COc2ccc(-c3ccccc3)cc2)n1,IC50,[2],4.91 µM
O=C(NO)c1nnc(-c2ccc(-c3ccc(Cl)cc3)cc2)o1,IC50,[2],0.51 µM
COc1c(O)cc2oc3cc(O)c(CC=C(C)C)c(O)c3c(=O)c2c1CC=C(C)C [MANGOSTIN],IC50,[12],14.1 µM
O=C(Cc1noc(-c2ccc(-c3ccc(Cl)cc3)cc2)n1)NO,inhibition,[6],< 50%
same,IC50,[2],> 50 µM
O=C(NO)c1nc(-c2ccc(CNc3ccc(C(F)(F)F)cc3)cc2)no1,inhibition,[1],inactive
CC(C)COc1ccc(-c2nnc(C(=O)NO)o2)cc1,Activity,HUVEC,Non-Toxic
same,IC50,[2],0.81 µM
O=C(Cc1noc(COc2ccc(-c3ccccc3)cc2)n1)NO,inhibition,[6],< 50%
same,IC50,[2],> 50 µM
O=C(CCCOc1ccc(-c2cccnc2)cc1)NO,inhibition,[1],inactive
O=C(Cc1nc(-c2ccc(COc3ccccc3)cc2)no1)NO,inhibition,[1],inactive
O=C(NO)c1nc(-c2ccc(COc3cccc(Cl)c3)cc2)no1,IC50,[2],8.4 µM
